Read-outs that look alike come from different tables or passages of the source. Blank lines part the entries; values can stand above or below the compound they belong to.
Tests used:
Assay type in all cases: biochemical
p110γ = p110γ (Homo sapiens (Human), UniProt P48736); experiment: PI 3-Kinase (human) HTRF assay, p110γ
p110α/p85α = p110α/p85α (Homo sapiens (Human), UniProt P42336); experiment: PI 3-Kinase (human) HTRF assay, p110α/p85α
p110δ/p85α = p110δ/p85α (Homo sapiens (Human), UniProt O00329); experiment: PI 3-Kinase (human) HTRF assay, p110δ/p85α
p110β/p85α = p110β/p85α (Homo sapiens (Human), UniProt P42338); experiment: PI 3-Kinase (human) HTRF assay, p110β/p85α
[1] = in vitro, read-out: PI3K γ IC50
[2] = in vitro, read-out: PI3K α IC50
[3] = in vitro, read-out: PI3K δ IC50
[4] = in vitro, read-out: PI3K β IC50

Chain of p110β/p85α (P42338 whole entry): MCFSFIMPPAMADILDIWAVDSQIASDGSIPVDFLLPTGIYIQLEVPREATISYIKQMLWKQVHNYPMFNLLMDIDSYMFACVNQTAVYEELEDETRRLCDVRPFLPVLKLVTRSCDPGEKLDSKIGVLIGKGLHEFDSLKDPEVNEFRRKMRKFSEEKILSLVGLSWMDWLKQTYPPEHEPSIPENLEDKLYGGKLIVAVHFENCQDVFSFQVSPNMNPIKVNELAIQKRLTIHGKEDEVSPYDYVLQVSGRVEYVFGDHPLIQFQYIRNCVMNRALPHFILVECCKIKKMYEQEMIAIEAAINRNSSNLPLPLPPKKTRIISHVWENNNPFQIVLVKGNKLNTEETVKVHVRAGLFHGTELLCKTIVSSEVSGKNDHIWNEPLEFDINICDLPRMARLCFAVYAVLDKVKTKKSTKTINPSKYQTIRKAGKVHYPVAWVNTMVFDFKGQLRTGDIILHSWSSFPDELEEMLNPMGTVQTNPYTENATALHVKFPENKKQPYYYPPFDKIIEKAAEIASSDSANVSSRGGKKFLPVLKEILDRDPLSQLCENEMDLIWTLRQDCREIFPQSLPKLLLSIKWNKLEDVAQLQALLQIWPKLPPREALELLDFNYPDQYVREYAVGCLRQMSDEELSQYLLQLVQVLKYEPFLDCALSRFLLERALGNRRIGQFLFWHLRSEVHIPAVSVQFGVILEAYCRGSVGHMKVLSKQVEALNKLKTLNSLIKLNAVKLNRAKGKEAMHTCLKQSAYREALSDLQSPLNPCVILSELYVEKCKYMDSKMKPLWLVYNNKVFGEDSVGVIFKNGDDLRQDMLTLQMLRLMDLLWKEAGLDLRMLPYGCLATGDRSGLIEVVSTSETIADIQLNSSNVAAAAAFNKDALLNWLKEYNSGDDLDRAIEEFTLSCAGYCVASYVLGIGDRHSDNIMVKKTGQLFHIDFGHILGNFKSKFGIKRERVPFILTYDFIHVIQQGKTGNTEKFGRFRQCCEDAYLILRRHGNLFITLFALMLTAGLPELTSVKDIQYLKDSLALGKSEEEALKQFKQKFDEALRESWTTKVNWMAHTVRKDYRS
Chain of p110β/p85α (P27986 whole entry partner): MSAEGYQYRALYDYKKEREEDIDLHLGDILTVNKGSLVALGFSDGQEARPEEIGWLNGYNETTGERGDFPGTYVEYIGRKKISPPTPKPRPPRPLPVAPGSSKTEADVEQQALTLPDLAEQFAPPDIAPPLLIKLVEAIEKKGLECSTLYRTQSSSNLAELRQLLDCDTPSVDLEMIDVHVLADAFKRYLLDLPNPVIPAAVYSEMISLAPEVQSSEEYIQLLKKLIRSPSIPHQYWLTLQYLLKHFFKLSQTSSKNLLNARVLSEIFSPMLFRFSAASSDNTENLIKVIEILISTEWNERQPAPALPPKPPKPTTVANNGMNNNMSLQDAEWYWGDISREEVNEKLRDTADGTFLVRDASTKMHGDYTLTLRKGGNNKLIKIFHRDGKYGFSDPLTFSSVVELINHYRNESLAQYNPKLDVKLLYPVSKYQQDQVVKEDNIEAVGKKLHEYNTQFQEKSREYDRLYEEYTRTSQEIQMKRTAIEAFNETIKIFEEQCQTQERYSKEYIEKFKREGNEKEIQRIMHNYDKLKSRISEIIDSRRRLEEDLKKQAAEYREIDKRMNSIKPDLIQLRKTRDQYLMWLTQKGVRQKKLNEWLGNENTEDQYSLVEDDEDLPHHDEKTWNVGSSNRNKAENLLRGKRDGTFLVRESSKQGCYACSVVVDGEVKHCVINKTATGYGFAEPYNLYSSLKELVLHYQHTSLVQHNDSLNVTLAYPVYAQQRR
Chain of p110γ (P48736 whole entry): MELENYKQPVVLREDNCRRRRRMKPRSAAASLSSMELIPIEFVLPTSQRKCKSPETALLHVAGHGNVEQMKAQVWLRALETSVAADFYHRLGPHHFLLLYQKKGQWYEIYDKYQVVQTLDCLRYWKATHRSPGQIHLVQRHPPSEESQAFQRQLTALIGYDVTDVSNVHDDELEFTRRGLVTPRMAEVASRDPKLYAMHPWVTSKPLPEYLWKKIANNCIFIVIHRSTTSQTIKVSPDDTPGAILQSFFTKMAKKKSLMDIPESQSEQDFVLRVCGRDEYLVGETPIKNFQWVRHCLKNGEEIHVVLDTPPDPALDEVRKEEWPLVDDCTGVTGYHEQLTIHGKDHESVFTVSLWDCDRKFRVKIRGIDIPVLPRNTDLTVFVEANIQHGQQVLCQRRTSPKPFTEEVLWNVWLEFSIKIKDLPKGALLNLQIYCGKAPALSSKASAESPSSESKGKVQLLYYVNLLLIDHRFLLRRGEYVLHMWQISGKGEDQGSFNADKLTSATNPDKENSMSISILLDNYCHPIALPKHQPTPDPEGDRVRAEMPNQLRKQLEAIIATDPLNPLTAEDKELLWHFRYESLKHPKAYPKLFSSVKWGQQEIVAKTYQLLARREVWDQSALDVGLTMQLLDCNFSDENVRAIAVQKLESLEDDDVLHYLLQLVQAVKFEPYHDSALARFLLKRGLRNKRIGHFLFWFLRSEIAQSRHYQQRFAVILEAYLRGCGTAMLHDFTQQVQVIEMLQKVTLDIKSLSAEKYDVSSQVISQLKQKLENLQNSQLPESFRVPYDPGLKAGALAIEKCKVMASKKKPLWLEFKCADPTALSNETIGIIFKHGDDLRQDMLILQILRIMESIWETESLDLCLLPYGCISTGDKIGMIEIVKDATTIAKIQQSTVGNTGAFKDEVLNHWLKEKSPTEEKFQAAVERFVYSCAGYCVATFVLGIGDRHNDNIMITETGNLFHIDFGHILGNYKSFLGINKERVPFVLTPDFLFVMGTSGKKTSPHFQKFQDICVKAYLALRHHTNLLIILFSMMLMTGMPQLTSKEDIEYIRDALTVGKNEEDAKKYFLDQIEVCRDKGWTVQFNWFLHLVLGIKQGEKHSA
Chain of p110δ/p85α (O00329 whole entry): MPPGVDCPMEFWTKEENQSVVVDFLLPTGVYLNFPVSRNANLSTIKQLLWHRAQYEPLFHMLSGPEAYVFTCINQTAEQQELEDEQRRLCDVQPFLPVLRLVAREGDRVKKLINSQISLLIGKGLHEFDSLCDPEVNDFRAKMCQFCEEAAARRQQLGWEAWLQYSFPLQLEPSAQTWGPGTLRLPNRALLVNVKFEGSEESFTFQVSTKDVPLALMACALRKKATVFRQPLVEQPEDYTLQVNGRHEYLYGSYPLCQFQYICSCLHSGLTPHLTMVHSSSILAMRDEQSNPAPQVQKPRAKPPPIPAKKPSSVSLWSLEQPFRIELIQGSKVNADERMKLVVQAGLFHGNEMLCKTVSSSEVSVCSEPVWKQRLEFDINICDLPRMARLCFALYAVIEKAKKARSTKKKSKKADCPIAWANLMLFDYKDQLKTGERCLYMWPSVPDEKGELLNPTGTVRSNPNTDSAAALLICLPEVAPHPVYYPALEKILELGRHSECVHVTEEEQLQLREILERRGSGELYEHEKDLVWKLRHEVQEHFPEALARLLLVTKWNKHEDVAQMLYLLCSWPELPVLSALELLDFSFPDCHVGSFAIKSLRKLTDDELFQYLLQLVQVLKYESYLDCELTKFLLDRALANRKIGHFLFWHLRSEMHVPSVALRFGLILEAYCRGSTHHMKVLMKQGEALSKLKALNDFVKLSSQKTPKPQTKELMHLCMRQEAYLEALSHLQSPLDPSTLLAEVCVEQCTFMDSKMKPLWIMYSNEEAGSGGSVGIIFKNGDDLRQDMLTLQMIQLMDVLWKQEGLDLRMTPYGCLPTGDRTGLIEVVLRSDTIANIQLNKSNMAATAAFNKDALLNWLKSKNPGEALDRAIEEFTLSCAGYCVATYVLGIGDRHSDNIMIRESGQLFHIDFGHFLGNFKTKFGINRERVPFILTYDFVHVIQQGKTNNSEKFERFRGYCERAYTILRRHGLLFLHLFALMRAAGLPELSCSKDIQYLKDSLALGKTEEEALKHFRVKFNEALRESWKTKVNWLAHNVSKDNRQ
Chain of p110δ/p85α (P27986 whole entry partner): as the sequence (P27986 whole entry partner) above
Chain of p110α/p85α (P42336 whole entry): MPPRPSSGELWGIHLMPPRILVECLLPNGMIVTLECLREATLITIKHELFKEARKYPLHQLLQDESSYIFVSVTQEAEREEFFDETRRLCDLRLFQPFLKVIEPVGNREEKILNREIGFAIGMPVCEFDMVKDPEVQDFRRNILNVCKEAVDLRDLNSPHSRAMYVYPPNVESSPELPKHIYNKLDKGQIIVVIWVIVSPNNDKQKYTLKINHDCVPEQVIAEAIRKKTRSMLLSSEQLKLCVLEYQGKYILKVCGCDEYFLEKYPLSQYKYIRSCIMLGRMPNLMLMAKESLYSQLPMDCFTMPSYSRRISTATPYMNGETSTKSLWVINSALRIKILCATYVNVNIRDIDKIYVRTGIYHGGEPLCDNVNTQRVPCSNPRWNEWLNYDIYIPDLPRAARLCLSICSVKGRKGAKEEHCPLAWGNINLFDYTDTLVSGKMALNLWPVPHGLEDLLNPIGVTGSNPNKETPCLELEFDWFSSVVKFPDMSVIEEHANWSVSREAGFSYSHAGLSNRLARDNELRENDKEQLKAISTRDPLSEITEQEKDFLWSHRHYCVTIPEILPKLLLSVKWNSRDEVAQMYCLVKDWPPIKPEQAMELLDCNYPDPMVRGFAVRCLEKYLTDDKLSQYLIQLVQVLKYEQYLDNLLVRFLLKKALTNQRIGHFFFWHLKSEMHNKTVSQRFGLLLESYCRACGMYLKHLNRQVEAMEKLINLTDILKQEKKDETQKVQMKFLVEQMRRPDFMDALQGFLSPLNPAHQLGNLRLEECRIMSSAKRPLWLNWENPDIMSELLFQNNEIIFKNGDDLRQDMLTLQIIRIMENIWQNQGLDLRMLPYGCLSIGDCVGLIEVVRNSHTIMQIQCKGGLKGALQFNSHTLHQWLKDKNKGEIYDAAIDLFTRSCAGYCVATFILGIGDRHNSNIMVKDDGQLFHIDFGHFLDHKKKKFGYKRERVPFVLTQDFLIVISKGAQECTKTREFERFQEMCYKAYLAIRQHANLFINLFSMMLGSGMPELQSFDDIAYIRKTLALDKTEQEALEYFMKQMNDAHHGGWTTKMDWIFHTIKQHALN
Chain of p110α/p85α (P27986 whole entry partner): as the sequence (P27986 whole entry partner) above

SMILES: Nc1nc2cc(-c3ccc4ncc(C(=O)N5CCOCC5)n4c3)c(F)cc2o1 [compound 372]
IC50 (p110γ; [1]): < 10000 nM
IC50 (p110α/p85α; [2]): < 1000 nM
IC50 (p110δ/p85α; [3]): < 10000 nM
IC50 (p110β/p85α; [4]): < 10000 nM

SMILES: Nc1nc2cc(-c3ccc4ncc(N5CCNC(C(F)F)C5)nc4c3)ccc2o1 (stereo not drawn) [compound 413]
IC50 (p110γ; read-out: PI3K γ In Vitro IC50): < 1000 nM
IC50 (p110α/p85α; read-out: PI3K α In Vitro IC50): < 100 nM
IC50 (p110δ/p85α; read-out: PI3K δ In Vitro IC50): < 10000 nM
IC50 (p110β/p85α; read-out: PI3K β In Vitro IC50): < 1000 nM

SMILES: Nc1nc2cc(-c3ccc4ncc(NCCCN5CCCC5)nc4c3)ccc2o1 [compound 221]
IC50 (p110γ; [1]): < 100 nM
IC50 (p110α/p85α; [2]): < 100 nM
IC50 (p110δ/p85α; [3]): < 100 nM
IC50 (p110β/p85α; [4]): < 1000 nM

SMILES: CC(Oc1nc(-c2ccc3ncc(C(=O)N4CCOCC4)n3c2)cnc1N)C(F)(F)F (stereo not drawn) [compound 411]
IC50 (p110γ; read-out: PI3K γ In Vitro IC50): < 1000 nM
IC50 (p110α/p85α; read-out: PI3K α In Vitro IC50): < 100 nM
IC50 (p110δ/p85α; read-out: PI3K δ In Vitro IC50): < 10000 nM
IC50 (p110β/p85α; read-out: PI3K β In Vitro IC50): < 10000 nM

SMILES: Nc1nc2cc(-c3ccc4ncc(C(=O)N5CCOCC5)n4c3)cc(F)c2o1 [compound 360]
IC50 (p110γ; [1]): < 100 nM
IC50 (p110α/p85α; [2]): < 100 nM
IC50 (p110δ/p85α; [3]): < 10000 nM
IC50 (p110β/p85α; [4]): < 1000 nM

SMILES: Nc1nc2cc(-c3ccc4nccc(-c5ccncc5)c4c3)ccc2s1 [compound 70]
IC50 (p110γ; read-out: PI3K γ IC50): < 100 nM
IC50 (p110α/p85α; read-out: PI3K α IC50): < 100 nM
IC50 (p110δ/p85α; read-out: PI3K δ IC50): < 100 nM
IC50 (p110β/p85α; read-out: PI3K β IC50): < 100 nM

SMILES: Nc1nc2cc(-c3ccc4nc(N)sc4c3)cc(F)c2o1 [compound 436]
IC50 (p110γ; read-out: PI3K γ In Vitro IC50): < 100 nM
IC50 (p110α/p85α; read-out: PI3K α In Vitro IC50): < 100 nM
IC50 (p110δ/p85α; read-out: PI3K δ In Vitro IC50): < 1000 nM
IC50 (p110β/p85α; read-out: PI3K β In Vitro IC50): < 100 nM

SMILES: CC(=O)N1CCN(c2cnc3ccc(-c4ccc5oc(N)nc5c4)cc3n2)CC1 [compound 85]
IC50 (p110γ; read-out: PI3K γ IC50): < 100 nM
IC50 (p110α/p85α; read-out: PI3K α IC50): < 100 nM
IC50 (p110δ/p85α; read-out: PI3K δ IC50): < 100 nM
IC50 (p110β/p85α; read-out: PI3K β IC50): < 100 nM

SMILES: CS(=O)(=O)CCN1CCC(NC(=O)c2cnc3ccc(-c4ccc5oc(N)nc5c4)cn23)CC1 [compound 199]
IC50 (p110γ; [1]): < 100 nM
IC50 (p110α/p85α; [2]): < 100 nM
IC50 (p110δ/p85α; [3]): < 100 nM
IC50 (p110β/p85α; [4]): < 10000 nM

SMILES: CC(=O)Nc1nc2cc(-c3ccc4nc(N)oc4c3)ccc2s1 [compound 251]
IC50 (p110γ; [1]): < 100 nM
IC50 (p110α/p85α; [2]): < 100 nM
IC50 (p110δ/p85α; [3]): < 100 nM
IC50 (p110β/p85α; [4]): < 100 nM

SMILES: CC(C)N1CCC(n2cnc3ccc(-c4cnc(Cl)c(NS(=O)(=O)c5ccccc5)c4)cc3c2=O)CC1 [compound 521]
IC50 (p110γ; read-out: PI3K γ In Vitro IC50): < 1000 nM
IC50 (p110α/p85α; read-out: PI3K α In Vitro IC50): < 100 nM
IC50 (p110δ/p85α; read-out: PI3K δ In Vitro IC50): < 100 nM
IC50 (p110β/p85α; read-out: PI3K β In Vitro IC50): < 100 nM

SMILES: COc1nc(-c2ccc3oc(N)nc3c2)cnc1N [compound 238]
IC50 (p110γ; [1]): < 1000 nM
IC50 (p110α/p85α; [2]): < 1000 nM
IC50 (p110δ/p85α; [3]): < 10000 nM
IC50 (p110β/p85α; [4]): < 1000 nM

SMILES: CN1CCC(N(C)c2cnc3ccc(-c4ccc5oc(N)nc5c4)cc3n2)CC1 [compound 151]
IC50 (p110γ; read-out: PI3K γ IC50): < 10000 nM
IC50 (p110α/p85α; read-out: PI3K α IC50): < 100 nM
IC50 (p110δ/p85α; read-out: PI3K δ IC50): < 1000 nM
IC50 (p110β/p85α; read-out: PI3K β IC50): < 10000 nM

SMILES: O=C(c1cnc2ccc(-c3ccc(Cl)c(NS(=O)(=O)c4ccc(F)cc4F)c3)cn12)N1CCOCC1 [compound 461]
IC50 (p110γ; read-out: PI3K γ In Vitro IC50): < 10000 nM
IC50 (p110α/p85α; read-out: PI3K α In Vitro IC50): < 1000 nM
IC50 (p110δ/p85α; read-out: PI3K δ In Vitro IC50): < 10000 nM
IC50 (p110β/p85α; read-out: PI3K β In Vitro IC50): < 10000 nM

SMILES: CN1CCC(Nc2cnc3ccc(-c4ccc5oc(N)nc5c4)cc3n2)CC1 [compound 81]
IC50 (p110γ; read-out: PI3K γ IC50): < 1000 nM
IC50 (p110α/p85α; read-out: PI3K α IC50): < 100 nM
IC50 (p110δ/p85α; read-out: PI3K δ IC50): < 100 nM
IC50 (p110β/p85α; read-out: PI3K β IC50): < 1000 nM

Results, then the compound that gave them:

IC50 (p110γ; read-out: PI3K γ IC50): < 100 nM
IC50 (p110α/p85α; read-out: PI3K α IC50): < 100 nM
IC50 (p110δ/p85α; read-out: PI3K δ IC50): < 100 nM
IC50 (p110β/p85α; read-out: PI3K β IC50): < 10000 nM
SMILES: Nc1nc2cc(-c3ccc4ncc(C(=O)NC5CCOCC5)n4c3)ccc2o1 [compound 83]

IC50 (p110γ; read-out: PI3K γ In Vitro IC50): < 100 nM
IC50 (p110α/p85α; read-out: PI3K α In Vitro IC50): < 100 nM
IC50 (p110δ/p85α; read-out: PI3K δ In Vitro IC50): < 100 nM
IC50 (p110β/p85α; read-out: PI3K β In Vitro IC50): < 1000 nM
SMILES: COc1ncc(-c2ccc3ncc(C(=O)N4CCOCC4)n3c2)cc1NS(=O)(=O)c1ccc(F)cc1 [compound 421]

IC50 (p110γ; [1]): < 10000 nM
IC50 (p110α/p85α; [2]): < 100 nM
IC50 (p110δ/p85α; [3]): < 10000 nM
IC50 (p110β/p85α; [4]): < 10000 nM
SMILES: CC(C)N1CCN(C2CN(c3cnc4ccc(-c5ccc6oc(N)nc6c5)cc4n3)C2)CC1 [compound 331]

IC50 (p110γ; read-out: PI3K γ In Vitro IC50): < 100 nM
IC50 (p110α/p85α; read-out: PI3K α In Vitro IC50): < 100 nM
IC50 (p110δ/p85α; read-out: PI3K δ In Vitro IC50): < 1000 nM
IC50 (p110β/p85α; read-out: PI3K β In Vitro IC50): < 10000 nM
SMILES: COc1ncc(-c2ccc3ncc(C(=O)N4CCOCC4)n3c2)cc1NS(=O)(=O)c1ccccc1F [compound 422]

IC50 (p110γ; [1]): < 10000 nM
IC50 (p110α/p85α; [2]): < 100 nM
IC50 (p110δ/p85α; [3]): < 10000 nM
IC50 (p110β/p85α; [4]): < 10000 nM
SMILES: Cc1ccn(C2CN(c3cnc4ccc(-c5ccc6oc(N)nc6c5)cc4n3)C2)n1 [compound 320]

IC50 (p110γ; read-out: PI3K γ IC50): < 100 nM
IC50 (p110α/p85α; read-out: PI3K α IC50): < 100 nM
IC50 (p110δ/p85α; read-out: PI3K δ IC50): < 100 nM
IC50 (p110β/p85α; read-out: PI3K β IC50): < 10000 nM
SMILES: CS(=O)(=O)N1CCC(Nc2cnc3ccc(-c4ccc5oc(N)nc5c4)cc3n2)CC1 [compound 95]

IC50 (p110γ; [1]): < 10000 nM
IC50 (p110α/p85α; [2]): < 100 nM
IC50 (p110δ/p85α; [3]): < 10000 nM
IC50 (p110β/p85α; [4]): < 10000 nM
SMILES: Nc1nc2cc(-c3ccc4ncc(N5CC(N6CCOCC6)C5)nc4c3)c(F)cc2o1 [compound 373]

IC50 (p110γ; [1]): < 1000 nM
IC50 (p110α/p85α; [2]): < 100 nM
IC50 (p110δ/p85α; [3]): < 10000 nM
IC50 (p110β/p85α; [4]): < 10000 nM
SMILES: CCN(CC)C1CN(c2cnc3ccc(-c4ccc5oc(N)nc5c4)cc3n2)C1 [compound 324]

IC50 (p110γ; read-out: PI3K γ IC50): < 100 nM
IC50 (p110α/p85α; read-out: PI3K α IC50): < 100 nM
IC50 (p110δ/p85α; read-out: PI3K δ IC50): < 100 nM
IC50 (p110β/p85α; read-out: PI3K β IC50): < 100 nM
SMILES: Nc1nc2cc(-c3ccc4ncc(-c5cccnc5)n4n3)ccc2o1 [compound 58]

Source: patent publication US11547697B2, “Heterocyclic compounds and uses thereof” (MILLENNIUM PHARMACEUTICALS, INC., priority 2009, dated 2023)
